In data set [1] the test system is Bemisia tabaci (Cotton White Fly). Nature of the data set: Example B5: activity against Bemisia tabaci, sprayed cotton leaf discs. Format: in vivo. The note with it: foliar, 144 h, application rate 200 ppm, adult white flies, 6 days after incubation. The method, then:
Cotton leaf discs were placed on agar in 24-well microtiter plates and sprayed with aqueous test solutions prepared from 10'000 ppm DMSO stock solutions. After drying the leaf discs were infested with adult white flies. The samples were checked for mortality 6 days after incubation.

In data set [2] the test system is Diabrotica Balteata (Corn Root Worm). The data set is described as follows: Example B7: activity against Diabrotica balteata, sprayed maize sprouts. Format: in vivo. The note with it: 96 h, application rate 200 ppm, L2 larvae, 4 days after infestation, read-out: effect in at least one of the two categories (mortality or growth inhibition). The protocol:
Maize sprouts placed onto an agar layer in 24-well microtiter plates were treated with aqueous test solutions prepared from 10'000 ppm DMSO stock solutions by spraying. After drying, the plates were infested with L2 larvae (6 to 10 per well). The samples were assessed for mortality and growth inhibition in comparison to untreated samples 4 days after infestation.

Data set [3] concerns Frankliniella occidentalis (Western Flower Thrips). Nature of the data set: Example B4: activity against Frankliniella occidentalis, sprayed sunflower leaf discs. It is filed as in vivo. The note with it: foliar, 168 h, application rate 200 ppm, population of mixed ages, 7 days after infestation. The method, then: Sunflower leaf discs were placed on agar in 24-well microtiter plates and sprayed with aqueous test solutions prepared from 10'000 DMSO stock solutions. After drying the leaf discs were infested with a Frankliniella population of mixed ages. The samples were assessed for mortality 7 days after infestation.

In data set [4] the test system is Spodoptera littoralis (Egyptian Cotton Leaf Worm). Nature of the data set: Example B7: activity against Spodoptera littoralis, compound in agar taken up by lettuce roots. The note with it: 144 h, test rate 12.5 ppm, systemic via lettuce roots, Spodoptera eggs, 6 days after infestation, read-out: effect in at least one of the three categories (mortality, anti-feeding, or growth inhibition). Format: in vivo. An excerpt:
Test compounds were applied by pipette from 10'000 ppm DMSO stock solutions into 24-well plates and mixed with agar. Lettuce seeds were placed onto the agar and the multi well plate was closed by another plate which contained also agar. After 7 days the compound was absorbed by the roots and the lettuce grew into the lid plate. The lettuce leaves were then cut off into the lid plate. Spodoptera eggs were pipetted through a plastic stencil onto a humid gel blotting paper and the lid plate was closed with it. The samples were assessed for mortality, anti-feedant effect and growth inhibition in comparison to untreated samples 6 days after infestation.

The subject of data set [5] is Tetranychus urticae (Two-Spotted Spider Mite). The data set is described as follows: Example B7: activity against Tetranychus urticae, sprayed bean leaf discs. Format: in vivo. The note with it: foliar, 192 h, application rate 200 ppm, mixed population (mobile stages), 8 days after infestation. The method, then: Bean leaf discs on agar in 24-well microtiter plates were sprayed with aqueous test solutions prepared from 10'000 ppm DMSO stock solutions. After drying the leaf discs were infested with a mite population of mixed ages. The samples were assessed for mortality on mixed population (mobile stages) 8 days after infestation.

In data set [6] the test system is Euschistus heros (Neotropical Brown Stink Bug). Nature of the data set: Example B6: activity against Euschistus heros, sprayed soybean leaf. Format: in vivo. The note with it: 120 h, application rate 200 ppm, N-2 nymphs, 5 days after infestation, read-out: effect in at least one of the two categories (mortality or growth inhibition). The protocol:
Soybean leaf on agar in 24-well microtiter plates were sprayed with aqueous test solutions prepared from 10'000 ppm DMSO stock solutions. After drying the leaf were infested with N-2 nymphs. The samples were assessed for mortality and growth inhibition in comparison to untreated samples 5 days after infestation.

Data set [7] relates to Plutella xylostella (Diamond Back Moth). Nature of the data set: Example B1: activity against Plutella xylostella, artificial diet in 24-well plates. Format: in vivo. The note with it: 120 h, application rate 200 ppm, L2 larvae on artificial diet, 5 days after infestation, read-out: effect in at least one of the two categories (mortality or growth inhibition). The protocol:
24-well microtiter plates with artificial diet were treated with aqueous test solutions prepared from 10'000 ppm DMSO stock solutions by pipetting. After drying, the plates were infested with L2 larvae (10 to 15 per well). The samples were assessed for mortality and growth inhibition in comparison to untreated samples 5 days after infestation.

The test system of data set [8] is Spodoptera littoralis (Egyptian Cotton Leaf Worm). The data set is described as follows: Example B7: activity against Spodoptera littoralis, sprayed cotton leaf discs. It is filed as in vivo. The note with it: foliar, 72 h, application rate 200 ppm, L1 larvae, 3 days after infestation. The protocol: Cotton leaf discs were placed onto agar in 24-well microtiter plates and sprayed with aqueous test solutions prepared from 10'000 ppm DMSO stock solutions. After drying the leaf discs were infested with five L1 larvae. The samples were assessed for mortality, anti-feeding effect, and growth inhibition in comparison to untreated samples 3 days after infestation. Control of Spodoptera littoralis by a test sample is given when at least one of the categories mortality, anti-feedant effect, and growth inhibition is higher than the untreated sample.

The subject of data set [9] is Myzus persicae (Green Peach Aphid). Nature of the data set: Example B2: activity against Myzus persicae, sprayed sunflower leaf discs. Format: in vivo. The note with it: foliar, 144 h, application rate 200 ppm, aphid population of mixed ages, 6 days after infestation. The protocol: Sunflower leaf discs were placed on agar in a 24-well microtiter plate and sprayed with aqueous test solutions prepared from 10'000 ppm DMSO stock solutions. After drying, the leaf discs were infested with an aphid population of mixed ages. The samples were assessed for mortality 6 days after infestation.

For data set [10] the test system is unchanged. The data set is described as follows: Example B3: activity against Myzus persicae, roots of pea seedlings in test solution. Format: in vivo. The note with it: 144 h, test rate 24 ppm, roots of infested pea seedlings in test solution, 6 days. The method, then: Roots of pea seedlings infested with an aphid population of mixed ages were placed directly in the aqueous test solutions prepared from 10'000 DMSO stock solutions. The samples were assessed for mortality 6 days after placing seedlings in test solutions.

Data set [11] concerns Thrips tabaci (Onion Thrips). Nature of the data set: Example B7: activity against Thrips tabaci, sprayed sunflower leaf discs. It is filed as in vivo. Particulars: foliar, 144 h, application rate 200 ppm, population of mixed ages, 6 days after infestation. The method, then: Sunflower leaf discs were placed on agar in 24-well microtiter plates and sprayed with aqueous test solutions prepared from 10'000 ppm DMSO stock solutions. After drying the leaf discs were infested with a Thrips population of mixed ages. The samples were assessed for mortality 6 days after infestation.

Each structure is given as a SMILES string.

The term mortality denotes the percentage killed. A low value points to a weak lethal effect. For orientation: melting point means the temperature of the solid-liquid transition.

Consider `CCS(=O)(=O)c1cc(N=S(C)(=O)C2CC2)cnc1-c1nc2cc(C(F)(F)F)ncc2n1C` (stereo not shown) [P3, cyclopropyl-[[5-ethylsulfonyl-6-[3-methyl-6-(trifluoromethyl)imidazo[4,5-c]pyridin-2-yl]-3-pyridyl]imino]-methyl-oxo-λ^6-sulfane], for which the mortality at 200 ppm in data set [1], in data set [3], in data set [5] and in data set [9] was no less than 80% in each case. Moreover, the percent effect (mortality or growth inhibition) at 200 ppm in data set [2], in [6] and in [7] was no less than 80% in each case. In addition, the percent effect (mortality, anti-feeding or growth inhibition) at 12.5 ppm in data set [4] is no less than 80%. In [8], this molecule came in with a percent control (mortality, anti-feedant effect or growth inhibition) at 200 ppm of no less than 80%.

As to `CCS(=O)(=O)c1cc(N=S(=O)(CC)CC)cnc1-c1nc2cc(C(F)(F)F)ncc2n1C` [P4, diethyl-[[5-ethylsulfonyl-6-[3-methyl-6-(trifluoromethyl)imidazo[4,5-c]pyridin-2-yl]-3-pyridyl]imino]-oxo-λ^6-sulfane], the mortality at 200 ppm in [1], in data set [5] and in data set [9] was no less than 80% each time. Further, the percent effect (mortality or growth inhibition) at 200 ppm in data set [2], in data set [6] and in [7] was no less than 80% each time. Moreover, the percent control (mortality, anti-feedant effect or growth inhibition) at 200 ppm in data set [8] is no less than 80%.

For the molecule `CCS(=O)(=O)c1cc(N=S(C)(=O)C2CC2)cnc1-c1nc2cc(C(F)(F)F)nnc2n1C` (stereo not shown) [P7, cyclopropyl-[[5-ethylsulfonyl-6-[7-methyl-3-(trifluoromethyl)imidazo[4,5-c]pyridazin-6-yl]-3-pyridyl]imino]-methyl-oxo-λ^6-sulfane], the mortality at 200 ppm in data set [1], in data set [3], in data set [5] and in data set [9] was no less than 80% each time. The percent effect (mortality or growth inhibition) at 200 ppm in data set [2], in data set [6] and in data set [7] was no less than 80% each time. Moreover, in data set [10], the mortality at 24 ppm was no less than 80%. Besides, the percent effect (mortality, anti-feeding or growth inhibition) at 12.5 ppm in [4] was no less than 80%. The molecule also registered a percent control (mortality, anti-feedant effect or growth inhibition) at 200 ppm in data set [8] of no less than 80%.

As for `CCS(=O)(=O)c1cc(N=S(C)(C)=O)cnc1-c1nc2cc(C(F)(F)F)nnc2n1C` [P9, [5-ethylsulfonyl-6-[7-methyl-3-(trifluoromethyl)imidazo[4,5-c]pyridazin-6-yl]-3-pyridyl]imidno-dimethyl-oxo-λ^6-sulfane], the mortality at 200 ppm in [1], in data set [3], in [11] and in [9] was no less than 80% each time. Further, the percent effect (mortality or growth inhibition) at 200 ppm in data set [2], in data set [6] and in data set [7] was no less than 80% throughout. The molecule further returned a mortality at 24 ppm in data set [10] of no less than 80%. Besides, the percent control (mortality, anti-feedant effect or growth inhibition) at 200 ppm in data set [8] was no less than 80%.

Turning to `CCS(=O)(=O)c1cc(N=S(C)(=O)c2ccc(C)cc2)cnc1-c1cn2cnc(C(F)(F)F)cc2n1` (stereo not shown) [P10, [5-ethylsulfonyl-6-[7-(trifluoromethyl)imidazo[1,2-c]pyrimidin-2-yl]-3-pyridyl]imino-methyl-oxo-(p-tolyl)-λ^6-sulfane], the melting point lay in the range of 155 to 157 °C.

For the molecule `CCS(=O)(=O)c1cc(N=S2(=O)CCC2)cnc1-c1nc2cc(C(F)(F)F)ncc2n1C` [P11, 1-[[5-ethylsulfonyl-6-[3-methyl-6-(trifluoromethyl)imidazo[4,5-c]pyridin-2-yl]-3-pyridyl]imino]thietane 1-oxide], the mortality at 200 ppm in data set [1], in data set [3], in data set [5] and in data set [9] was no less than 80% in each case. For the same molecule, the percent effect (mortality or growth inhibition) at 200 ppm in [2], in data set [6] and in data set [7] was no less than 80% in each case. The mortality at 24 ppm in data set [10] was no less than 80%. This molecule also had a percent control (mortality, anti-feedant effect or growth inhibition) at 200 ppm in data set [8] of no less than 80%.

`CCS(=O)(=O)c1cc(N=S(C)(C)=O)cnc1-n1cc2cnc(C(F)(F)F)cc2n1` [P16, [5-ethylsulfonyl-6-[6-(trifluoromethyl)pyrazolo[4,3-c]pyridin-2-yl]-3-pyridyl]imino-dimethyl-oxo-λ^6-sulfane]: the mortality at 200 ppm in [1], in data set [3] and in data set [9] was no less than 80% each time. Moreover, the percent effect (mortality or growth inhibition) at 200 ppm in [2], in [6] and in [7] was no less than 80% throughout. The mortality at 24 ppm in data set [10] is no less than 80%. This molecule had a percent control (mortality, anti-feedant effect or growth inhibition) at 200 ppm in data set [8] of no less than 80%.

As to `CCS(=O)(=O)c1cc(N=S2(=O)CCOCC2)cnc1-c1nc2cc(C(F)(F)F)nnc2n1C` [P23, 4-[[5-ethylsulfonyl-6-[7-methyl-3-(trifluoromethyl)imidao[4,5-c]pyridazin-6-yl]-3-pyridyl]imino]-1,4-oxathiane 4-oxide], the mortality at 200 ppm in data set [1], in data set [5] and in data set [9] was no less than 80% each time. The molecule also returned a mortality at 24 ppm in [10] of no less than 80%. Further, the percent effect (mortality or growth inhibition) at 200 ppm in data set [6] and in data set [7] was no less than 80% throughout.

Consider `CCS(=O)(=O)c1cc(N=S2(=O)CCOCC2)ccc1-c1nc2cc(C(F)(F)F)nnc2n1C` [P25, 4-[3-ethylsulfonyl-4-[7-methyl-3-(trifluoromethyl)imidazo[4,5-c]pyridazin-6-yl]phenyl]imino-1,4-oxathiane 4-oxide], for which the melting point was in the range of 253 to 255 °C.

Consider `CCS(=O)(=O)c1cc(N=S2CCOCC2)cnc1-c1nc2cc(C(F)(F)F)ncc2n1C` [P26, 2-[3-ethylsulfonyl-5-(1,4-oxathian-4-ylideneamino)-2-pyridyl]-3-methyl-6-(trifluoromethyl)imidazo[4,5-c]pyridine], for which the melting point was 214 °C (dec.).

For the origin of these results see patent publication US10961248B2, “Pesticidally active heterocyclic derivatives with sulfur containing substituents” (SYNGENTA PARTICIPATIONS AG, priority 2016, dated 2021).
